For assay [1], the system named is lysosomal TPC2. The settings on record: cited from earlier work.
Assay [2] has as its target T1, human TPC2 L11A/L12A (TPC2^PM) (Homo sapiens, UniProt Q8NHX9, L11A/L12A).
T1 construct: FLAG (C); V5 (C); expressed in transfected cells; host or cells: HEK293
Put plainly: Inside-out patch-clamp of PI(3,5)P2-induced TPC2^PM Na+ currents (WT pore). Type of assay: cell-based. The settings on record: for current, trace of PI103 on WT TPC2 channel: voltage -1.20E+02, successive trace points. As to the method: (§1) After 24 h of transfection, human TPC1^PM or TPC2^PM channel currents were acquired at room temperature using an EPC-10 amplifier and PatchMaster software (HEKA) or a MultiClamp 700B amplifier and pCLAMP software (Axon Instruments). […] Patch pipettes were polished with a resistance of 2–3 MΩ for recording. Similarly, for whole-cell recording to allow inhibitor application on the extracellular side, the K^+-based solution was used as the pipette solution, and the Na^+-based solution was used in the bath.
Dose curves were fitted by the Hill logistic equation. τon and τoff were acquired from singe exponential fitting.

Assay [3] addresses T2, human TPC2^PM Y312A mutant (Homo sapiens, UniProt Q8NHX9, L11A/L12A/Y312A).
T2 construct: FLAG (C); V5 (C); expressed in transfected cells; host or cells: HEK293
Put plainly: Inside-out patch-clamp, PI(3,5)P2-activated TPC2^PM Y312A. As to conditions: for current, trace of PI103 on Y312A of TPC2 channel: successive trace points. Type of assay: cell-based. On the procedure:
as §1

Assay [4] addresses T3, human TPC2^PM H699A mutant (Homo sapiens, UniProt Q8NHX9, H699A/L11A/L12A).
T3 construct: FLAG (C); V5 (C); expressed in transfected cells; host or cells: HEK293
Put plainly: Inside-out patch-clamp, PI(3,5)P2-activated TPC2^PM H699A. Type of assay: cell-based. As to conditions: for current, trace of PI103 on H699A of TPC2 channel: voltage -1.20E+02, successive trace points. On the procedure: as §1
For orientation: The patch-clamp technique gives a direct electrical read-out from membranes.

In assay [5] the target is T4, human TPC2^PM Y312A/H699A mutant (Homo sapiens, UniProt Q8NHX9, H699A/L11A/L12A/Y312A).
T4 construct: FLAG (C); V5 (C); expressed in transfected cells; host or cells: HEK293
T4 sequence (Q8NHX9 whole entry L11A/L12A/Y312A/H699A): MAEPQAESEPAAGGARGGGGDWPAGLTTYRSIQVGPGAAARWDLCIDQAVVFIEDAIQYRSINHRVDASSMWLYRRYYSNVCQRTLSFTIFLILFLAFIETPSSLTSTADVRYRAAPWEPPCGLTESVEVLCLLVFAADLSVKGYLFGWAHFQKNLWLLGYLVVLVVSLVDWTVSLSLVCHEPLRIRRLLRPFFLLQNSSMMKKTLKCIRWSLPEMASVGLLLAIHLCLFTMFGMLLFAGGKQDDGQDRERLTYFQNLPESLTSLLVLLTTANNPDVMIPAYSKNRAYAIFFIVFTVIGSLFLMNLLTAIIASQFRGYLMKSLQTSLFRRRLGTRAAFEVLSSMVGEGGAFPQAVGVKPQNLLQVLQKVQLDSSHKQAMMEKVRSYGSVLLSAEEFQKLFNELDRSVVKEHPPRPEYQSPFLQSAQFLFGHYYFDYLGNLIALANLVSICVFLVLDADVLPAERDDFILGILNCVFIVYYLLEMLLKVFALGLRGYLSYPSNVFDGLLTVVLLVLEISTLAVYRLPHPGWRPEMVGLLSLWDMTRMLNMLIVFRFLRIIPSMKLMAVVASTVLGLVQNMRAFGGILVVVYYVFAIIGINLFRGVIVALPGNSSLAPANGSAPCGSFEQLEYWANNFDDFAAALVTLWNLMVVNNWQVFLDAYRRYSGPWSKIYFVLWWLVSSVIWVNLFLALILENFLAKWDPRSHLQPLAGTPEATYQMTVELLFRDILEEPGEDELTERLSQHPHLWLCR
Put plainly: Inside-out patch-clamp, PI(3,5)P2-activated TPC2^PM Y312A/H699A. Type of assay: cell-based. The settings on record: 0.3 μM PI(3,5)P2 alone, trace, voltage -1.20E+02. As to the method:
as §1

The target of assay [6] is T5, human TPC2 (Homo sapiens, UniProt Q8NHX9).
T5 construct: FLAG (C); V5 (C); expressed in transfected cells; host or cells: HEK293
T5 sequence (Q8NHX9 whole entry): as the sequence (Q8NHX9 whole entry L11A/L12A/Y312A/H699A) above, with A11L, A12L, A312Y, A699H counted along it
Put plainly: Imaging of NAADP-evoked Ca2+ elevation (GCaMP6f) after microinjection in TPC2-expressing HEK293 cells. Type of assay: cell-based. As to the method:
Ca^2+ imaging analysis of NAADP-evoked Ca^2+ elevation was performed as we recently described. Briefly, cells were co-transfected with cDNA constructs of human TPC2 and the Ca^2+ reporter GCaMP6f, and the transfected cells were identified by GCaMP6f fluorescence. Fluorescence was monitored with an Axio Observer A1 microscope equipped with an AxioCam MRm digital camera and ZEN Blue 2 software containing a physiology module (Carl Zeiss) at a sampling frequency of 2 Hz. Cell injection was performed with a FemtoJet microinjector (Eppendorf). The pipette solution contained 110 mM KCl, 10 mM NaCl, and 20 mM Hepes (pH 7.2) supplemented with Dextran (10,000 MW)-Texas Red (0.3 mg/ml) and NAADP (100 nM) or vehicle. When needed, 10 µM YM201626 or apilimod at was added to the pipette solution. […] To minimize interference by contaminated Ca^2+, the pipette solution was always treated with Chelex 100 resin (#C709, Sigma-Aldrich) immediately before use. Microinjection (0.5 s at 150 hPa) was made ~30 s after pipette tip insertion into cells. […] Successful injection was verified by fluorescence of the co-injected Texas Red. Elevation in intracellular Ca^2+ concentration was reported by a change in fluorescence intensity measured as ΔF/F0, calculated from NAADP microinjection-induced maximal changes in fluorescence (ΔF at the peak) divided by the fluorescence immediately before microinjection (F0).

The target in assay [7] is T1, human TPC2 L11A/L12A (TPC2^PM). Put plainly: Whole cell patch-clamp of NAADP (microinjection)-induced TPC2^PM currents in HEK293 cells. Type of assay: cell-based. On the set-up: averaged NAADP-induced whole cell current trace: unit not given here. On the procedure: Whole cell patch-clamp recording of the NAADP (microinjection)-induced TPC2^PM currents was performed as we reported. […] The cells were visualized under an infrared differential interference contrast optics microscope (Zeiss). Currents were recorded by voltage ramps from −120 to +120 mV over 400 ms for every 2 s with a holding potential of 0 mV. After a whole cell recording configuration was achieved, an injection pipette was inserted into the cell and the baseline of the whole cell current was recorded. Microinjection of NAADP was performed as above in imaging analysis of NAADP-evoked Ca^2+ release. The NAADP-induced currents were obtained by subtraction of the baseline from NAADP injection-induced currents.

Assay [8] has as its system TPCs. The settings on record: read-out: IC50 inhibition of TPCs; cited from earlier work.
Assay [9] has as its system Ebola virus. The settings on record: read-out: IC50 virus entry; cited from earlier work.

The structures appear in SMILES notation. “And” between values parts separate entries of the source, which are not always exact repeats. Identical values can stand only once. Like-named read-outs stand apart in the source and are kept apart here.

T3 sequence (Q8NHX9 whole entry L11A/L12A/H699A): as the sequence (Q8NHX9 whole entry L11A/L12A/Y312A/H699A) above, with A312Y counted along it
T1 sequence (Q8NHX9 whole entry L11A/L12A): as the sequence (Q8NHX9 whole entry L11A/L12A/Y312A/H699A) above, with A312Y, A699H counted along it
T2 sequence (Q8NHX9 whole entry L11A/L12A/Y312A): as the sequence (Q8NHX9 whole entry L11A/L12A/Y312A/H699A) above, with A699H counted along it

For `COc1ccc([C@H]2N[C@H](C(=O)O)Cc3c2[nH]c2ccccc32)cc1CN1CCN(c2ccccc2F)CC1` [Ned-19], the “inhibition of lysosomal TPC2 activity” value in assay [1] (200 µM) is given as ~ 75%.
In the case of `Oc1cccc(-c2nc(N3CCOCC3)c3oc4ncccc4c3n2)c1` [PI103], the “current, trace of PI103 on WT TPC2 channel” value in [2] (0.3 μM PI(3,5)P2 + 0.2 μM PI103) is -1.97E-09 A; in assay [2] (0.3 μM PI(3,5)P2 + 0.5 μM PI103) it was -1.21E-09 A. Further, the “current, trace of PI103 on Y312A of TPC2 channel” value in assay [3] (0.3 μM PI(3,5)P2 + 2.0 μM PI103, voltage -1.20E+02) was -3.13E-09 A; in [3] (0.3 μM PI(3,5)P2 + 5.0 μM PI103, voltage -1.20E+02), -1.87E-09 A; in assay [3] (0.3 μM PI(3,5)P2 + 20.0 μM PI103, voltage -1.20E+02), -1.61E-09 A. Besides, the “current, trace of PI103 on H699A of TPC2 channel” value in assay [4] (0.3 μM PI(3,5)P2 + 0.4 μM PI103) was -4.01E-09 A; in assay [4] (0.3 μM PI(3,5)P2 + 20.0 μM PI103), -3.66E-09 A; in assay [4] (0.3 μM PI(3,5)P2 + 50.0 μM PI103), -3.37E-09 A.
As to `Oc1cccc(-c2nc(N3CCOCC3)c3oc4ncccc4c3n2)c1` [PI-103], the “fold higher IC50 than that of YM201636” value in assay [2] (WT TPC2^PM) is recorded as 4 fold. Besides, the results for the IC50 in assay [2] (read-out: IC50 for inhibition of PI(3,5)P2-induced human TPC2 channel Na+ currents) and in assay [3] were 0.64 µM and 13.9 µM, respectively. In assay [4] (0.3 μM PI(3,5)P2, inside-out), the “channel's blockade in H699A mutant” value is “largely abolished”.
On to `CCCCCCCC(=O)OC[C@H](COP(=O)(O)OC1[C@H](O)[C@H](OP(=O)(O)O)C(O)[C@H](OP(=O)(O)O)[C@H]1O)OC(=O)CCCCCCC` (some centres unmarked) [PI(3,5)P2, phosphatidylinositol 3,5-bisphosphate], for which the “deactivation rate τoff on wash-off” value in [2] (1.0 μM PI(3,5)P2, n = 7) came out at 20.8 ± 0.9 s. The “activation rate τon of human TPC2 channels” value in assay [2] (1.0 μM PI(3,5)P2 from cytosolic side, n = 8) was 9.0 ± 0.5 s. In assay [2] (PI(3,5)P2 wash on), the “kinetics (Tau) of TPC2PM currents, mean value” turned out to be 9.035. Besides, the “Tau of TPC2PM currents, PI(3,5)P2 wash on after Y201636, single cells” value in [2] (individual cells 1-5, Fig 3D) is 48.718 and 63.746 and 69.896 and 56.91 and 53.316. Also, the “Tau of TPC2PM currents, PI(3,5)P2 wash off, single cells” value in assay [2] (individual cells 1-7, Fig 3D) was 21.372 and 18.6234 and 21.6704 and 18.1982 and 20.854 and 19.4692 and 25.31. Moreover, the “Tau of TPC2PM currents, PI(3,5)P2 wash on, single cells” value in [2] (individual cells 1-8, Fig 3D) is 8.4824 and 9.9858 and 7.6828 and 7.7804 and 8.8206 and 10.9364 and 11.3272 and 7.265. Further, the “Averaged kinetics (Tau) of TPC2PM currents, PI(3,5)P2 wash on after YM201636, mean value” in assay [2] (mean, 5 cells, Fig 3D) worked out at 11.9903. Also, the “Averaged kinetics (Tau) of TPC2PM currents, PI(3,5)P2 wash off, mean value” in assay [2] (mean, 7 cells, Fig 3D) is 20.7853. In addition, the “Averaged kinetics (Tau) of TPC2PM currents, PI(3,5)P2 wash on, mean value” in [2] (mean, 8 cells, Fig 3D) is on record as 9.035. Further, the “current(A)” value is listed as -2.83E-09 A in assay [3] (Y312A TPC2, 0.3 μM PI(3,5)P2 alone, trace, voltage -1.20E+02) and -4.54E-09 A in assay [5].
Regarding `COc1cc2c(cc1Oc1ccccc1)C(Cc1ccc(Oc3ccccc3)cc1)N(C)CC2` (centres unmarked) [SG-094], the “inhibition of (lysosomal) TPC2 currents” value in [1] (10 µM) is given as ~ 75%.
Consider `Cc1cccc(/C=N/Nc2cc(N3CCOCC3)nc(OCCc3ccccn3)n2)c1` [apilimod], for which the “reduction of the NAADP-evoked Ca2+ elevation” value in assay [6] (1 µM microinjected together with NAADP (100 nM), HEK293 cells) is given as “largely unaffected”. Also, the “NAADP-evoked calcium elevation (change in Ca2+ indicator fluorescence), individual cells” value in assay [6] (Fig 1B source data, 1 µM microinjected with NAADP) is 2.593 and 3.9665 and 6.13 and 1.0864 and 2.248 and 3.0742. In assay [7] (1 µM in bath solution ~10 min, whole cell, −120 mV), the “inhibition of the NAADP-induced TPC2^PM currents” value was “little effect”. Besides, the “averaged NAADP-induced whole cell current trace” value in [7] (1 uM, Voltage -119.76) was -0.4148; in [7] (1 uM, Voltage -119.82), -0.4172; in assay [7] (1 uM, Voltage -119.88) it was -0.4198; in assay [7] (1 uM, Voltage -119.94) it was -0.4267; in assay [7] (1 uM, Voltage -120, Fig 1C source data), -0.4289. Moreover, the “I, current density of NAADP-induced whole cell TPC2^PM currents, individual cells” value in assay [7] (1 uM, −120 mV, Fig 1D source data) was 94.6904 pA/pF and 47.5492 pA/pF and 12.9726 pA/pF and 46.7536 pA/pF and 31.7662 pA/pF and 23.2025 pA/pF.
For `O=C1C[C@@H](c2ccc(O)cc2)Oc2cc(O)cc(O)c21` [Naringenin], in assay [8], the IC50 is roughly 200 µM.
With `COc1ccc2cc1Oc1ccc(cc1)C[C@H]1c3cc(c(OC)cc3CCN1C)Oc1c(OC)c(OC)cc3c1[C@H](C2)N(C)CC3` [tetrandrine], the “inhibition of (lysosomal) TPC2 currents” value in assay [1] (0.5 µM) is 60%; in [1] (10 µM), 54% and 50–60%. For the same compound, the IC50 in assay [9] is 0.055 µM.

In general, IC50 refers to the concentration needed to halve the response being measured.

Source of the values: PMC9308409 (Communications Biology, 2022).
